Measured values published in paper PMC9234962, “Optimization of Peptide Linker-Based Fluorescent Ligands for the Histamine H1 Receptor” (Journal of Medicinal Chemistry, 2022).
Square brackets hold non-standard residues; d marks the D form. Side chains are listed from the residue outwards. Peptide text beside a SMILES is read from it. * marks the point of attachment. X1 = O=C(COc1ccc(/C=C/C2=[N+]3C(=Cc4ccc(-c5cccs5)n4[B-]3(F)F)C=C2)cc1)*; Propanoyl(3-Pip(4-O-2-BnPh)) = O=C(CCN1CCC(Oc2ccccc2Cc2ccccc2)CC1)*; BODIPY(FL) = CC1=CC(C)=[N+]2C1=Cc1ccc(CCC(=O)*)n1[B-]2(F)F; Ahx = NCCCCCC(=O)O; βAla = NCCC(=O)O

Biological target: Nluc-H1R (Homo sapiens, UniProt P35367)
Sequence (P35367 whole entry): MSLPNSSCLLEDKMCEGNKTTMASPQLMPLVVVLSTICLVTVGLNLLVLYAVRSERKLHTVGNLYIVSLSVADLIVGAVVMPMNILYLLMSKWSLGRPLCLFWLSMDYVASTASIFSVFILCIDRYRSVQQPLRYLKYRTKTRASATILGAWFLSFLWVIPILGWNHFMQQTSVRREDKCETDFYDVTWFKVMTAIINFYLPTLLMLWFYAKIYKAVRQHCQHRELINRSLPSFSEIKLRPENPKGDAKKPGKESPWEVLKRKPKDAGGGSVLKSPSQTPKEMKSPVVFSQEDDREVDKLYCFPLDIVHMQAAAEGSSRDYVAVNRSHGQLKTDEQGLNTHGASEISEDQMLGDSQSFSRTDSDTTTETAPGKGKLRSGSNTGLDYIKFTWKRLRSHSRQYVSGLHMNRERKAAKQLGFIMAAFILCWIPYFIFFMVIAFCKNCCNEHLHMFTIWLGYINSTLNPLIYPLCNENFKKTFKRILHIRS
Assay: NanoBRET saturation binding assay on Nluc-H1R expressing HEK293T cells
Design: expressed in transfected cells
Conditions: saturation binding curves, whole HEK293T cells; for pKD: non-specific with 10 μM mepyramine, mean ± SEM
Description: Total and non-specific saturation binding curves from NanoBRET saturation binding assay were fitted simultaneously using eq 1: [drawing 4] 1 where Bmax is the maximal specific binding, [B] is the concentration of fluorescent ligand in nM, KD is the equilibrium dissociation constant in nM, M is the slope of the non-specific component, and C is the intercept with the Y axis.

Compound | Kd | pKD
CC(C)[C@H](NC(=O)CCN(C)CC/C=C1\c2ccccc2COc2ccccc21)C(=O)N[C@@H](CO)C(=O)N[C@@H](CC(N)=O)C(=O)NCCC(=O)N[C@@H](CCCn1cc(COc2ccc(/C=C/C3=[N+]4C(=Cc5ccc(-c6cccs6)n5[B-]4(F)F)C=C3)cc2)nn1)C(N)=O [Compound 28c, (S)-N1-(3-(((S)-1-Amino-5-(4-((4-((E)-2-(5,5-difluoro-7-(thiophen-2-yl)-5H-5λ^4,6λ^4-dipyrrolo[1,2-c:2’,1’-f][1,3,2]diazaborinin-3-yl)vinyl)phenoxy)methyl)-1H-1,2,3-triazol-1-yl)-1-oxopentan-2-yl)amino)-3-oxopropyl)-2-((S)-2-((S)-2-(3-(((E)-3-(dibenzo[b,e]oxepin-11(6H)-ylidene)propyl)(methyl)amino)propanamido)-3-methylbutanamido)-3-hydroxypropanamido)succinamide] | 19 nM | 7.72 ± 0.11
CC(C)[C@H](NC(=O)CCN1CCC(Oc2ccccc2Cc2ccccc2)CC1)C(=O)N[C@@H](CCC(=O)O)C(=O)N[C@@H](CC(N)=O)C(=O)N[C@@H](Cn1cc(COc2ccc(/C=C/C3=[N+]4C(=Cc5ccc(-c6cccs6)n5[B-]4(F)F)C=C3)cc2)nn1)C(N)=O [Compound 22c, (S)-5-(((S)-4-Amino-1-(((S)-1-amino-3-(4-((4-((E)-2-(5,5-difluoro-7-(thiophen-2-yl)-5H-5λ^4,6λ^4-dipyrrolo[1,2-c:2’,1’-f][1,3,2]diazaborinin-3-yl)vinyl)phenoxy)methyl)-1H-1,2,3-triazol-1-yl)-1-oxopropan-2-yl)amino)-1,4-dioxobutan-2-yl)amino)-4-((S)-2-(3-(4-(2-benzylphenoxy)piperidin-1-yl)propanamido)-3-methylbutanamido)-5-oxopentanoic Acid] | 162 nM | 6.79 ± 0.04
CC(C)[C@H](NC(=O)CCN1CCC(Oc2ccccc2Cc2ccccc2)CC1)C(=O)N[C@@H](C)C(=O)N[C@@H](Cc1ccc(O)cc1)C(=O)NCCC(=O)N[C@@H](CCCCNC(=O)COc1ccc(/C=C/C2=[N+]3C(=Cc4ccc(-c5cccs5)n4[B-]3(F)F)C=C2)cc1)C(N)=O [Compound 31f, (S)-2-((6S,9S,12S)-16-(4-(2-Benzylphenoxy)piperidin-1-yl)-6-(4-hydroxybenzyl)-12-isopropyl-9-methyl-5,8,11,14-tetraoxo-4,7,10,13-tetraazahexadecanamido)-6-(2-(4-((E)-2-(5,5-difluoro-7-(thiophen-2-yl)-5H-5λ^4,6λ^4-di-pyrrolo[1,2-c:2’,1’-f][1,3,2]diazaborinin-3-yl)vinyl)phenoxy)acetamido)hexanamide] ({Propanoyl(3-Pip(4-O-2-BnPh))}-VAY[βAla]K(X1)-NH2) | 11 nM | 7.96 ± 0.11
C[C@H](NC(=O)[C@@H](NC(=O)CCN1CCC(Oc2ccccc2Cc2ccccc2)CC1)[C@@H](C)O)C(=O)N[C@@H](CC(N)=O)C(=O)NCCC(=O)N[C@@H](CCCCNC(=O)COc1ccc(/C=C/C2=[N+]3C(=Cc4ccc(-c5cccs5)n4[B-]3(F)F)C=C2)cc1)C(N)=O [Compound 31d, (S)-N1-(3-(((S)-1-Amino-6-(2-(4-((E)-2-(5,5-difluoro-7-(thiophen-2-yl)-5H-5λ^4,6λ^4-dipyrrolo[1,2-c:2’,1’-f][1,3,2]diazaborinin-3-yl)vinyl)phenoxy)acetamido)-1-oxohexan-2-yl)amino)-3-oxopropyl)-2-((S)-2-((2S,3R)-2-(3-(4-(2-benzylphenoxy)piperidin-1-yl)propanamido)-3-hydroxybutanamido)propanamido)succinamide] ({Propanoyl(3-Pip(4-O-2-BnPh))}-TAN[βAla]K(X1)-NH2) | 5 nM | 8.29 ± 0.07
C[C@H](NC(=O)CCN1CCC(Oc2ccccc2Cc2ccccc2)CC1)C(=O)N[C@@H](C)C(=O)N[C@@H](C)C(=O)N[C@@H](Cn1cc(COc2ccc(/C=C/C3=[N+]4C(=Cc5ccc(-c6cccs6)n5[B-]4(F)F)C=C3)cc2)nn1)C(N)=O [Compound 22b, (S)-N-((S)-1-Amino-3-(4-((4-((E)-2-(5,5-difluoro-7-(thiophen-2-yl)-5H-5λ^4,6λ^4-dipyrrolo[1,2-c:2’,1’-f][1,3,2]diazaborinin-3-yl)vinyl)phenoxy)methyl)-1H-1,2,3-triazol-1-yl)-1-oxopropan-2-yl)-2-((S)-2-((S)-2-(3-(4-(2-benzylphenoxy)piperidin-1-yl)propanamido)propanamido)propanamido)propenamide] | 20 nM | 7.70 ± 0.05
C[C@H](NC(=O)[C@@H](NC(=O)CCN1CCC(Oc2ccccc2Cc2ccccc2)CC1)[C@@H](C)O)C(=O)N[C@@H](Cc1ccc(O)cc1)C(=O)NCCC(=O)N[C@@H](CCCCNC(=O)COc1ccc(/C=C/C2=[N+]3C(=Cc4ccc(-c5cccs5)n4[B-]3(F)F)C=C2)cc1)C(N)=O [Compound 31h, (S)-2-((6S,9S,12S)-16-(4-(2-Benzylphenoxy)piperidin-1-yl)-6-(4-hydroxybenzyl)-12-((R)-1-hydroxyethyl)-9-methyl-5,8,11,14-tetraoxo-4,7,10,13-tetraazahexadecanamido)-6-(2-(4-((E)-2-(5,5-Difluoro-7-(thiophen-2-yl)-5H-5λ^4,6λ^4-dipyrrolo[1,2-c:2’,1’-f][1,3,2]diazaborinin-3-yl)vinyl)phenoxy)acetamido)hexanamide] ({Propanoyl(3-Pip(4-O-2-BnPh))}-TAY[βAla]K(X1)-NH2) | 6 nM | 8.23 ± 0.17
CC(C)[C@H](NC(=O)CCN1CCC(Oc2ccccc2Cc2ccccc2)CC1)C(=O)N[C@@H](CO)C(=O)N[C@@H](CC(N)=O)C(=O)N[C@@H](Cn1cc(COc2ccc(/C=C/C3=[N+]4C(=Cc5ccc(-c6cccs6)n5[B-]4(F)F)C=C3)cc2)nn1)C(N)=O [Compound 22a, (S)-N1-((S)-1-Amino-3-(4-((4-((E)-2-(5,5-difluoro-7-(thiophen-2-yl)-5H-5λ^4,6λ^4-dipyrrolo[1,2-c:2’,1’-f][1,3,2]diazaborinin-3-yl)vinyl)phenoxy)methyl)-1H-1,2,3-triazol-1-yl)-1-oxopropan-2-yl)-2-((S)-2-((S)-2-(3-(4-(2-benzylphenoxy)piperidin-1-yl)propanamido)-3-methylbutanamido)-3-hydroxypropanamido)succinamide] | 28 nM | 7.55 ± 0.07
C[C@H](NC(=O)CCN1CCC(Oc2ccccc2Cc2ccccc2)CC1)C(=O)N[C@@H](C)C(=O)N[C@@H](C)C(=O)NCCC(=O)N[C@@H](CCCn1cc(COc2ccc(/C=C/C3=[N+]4C(=Cc5ccc(-c6cccs6)n5[B-]4(F)F)C=C3)cc2)nn1)C(N)=O [Compound 28b, (S)-2-((6S,9S,12S)-16-(4-(2-Benzylphenoxy)piperidin-1-yl)-6,9,12-trimethyl-5,8,11,14-tetraoxo-4,7,10,13-tetraazahexadecanamido)-5-(4-((4-((E)-2-(5,5-difluoro-7-(thiophen-2-yl)-5H-5λ^4,6λ^4-dipyrrolo[1,2-c:2’,1’-f][1,3,2]diazaborinin-3-yl)vinyl)phenoxy)methyl)-1H-1,2,3-triazol-1-yl)pentanamide] | 14 nM | 7.86 ± 0.06
Cc1cc(C)n2c1C=C1C=CC(CCC(=O)NCCCCCC(=O)NCCCC[C@H](NC(=O)CCNC(=O)[C@H](CC(N)=O)NC(=O)[C@H](CO)NC(=O)[C@@H](NC(=O)CCN3CCC(Oc4ccccc4Cc4ccccc4)CC3)C(C)C)C(N)=O)=[N+]1[B-]2(F)F [Compound 38e, (S)-N^1-(3-(((S)-1-Amino-6-(6-(3-(5,5-difluoro-7,9-dimethyl-5H-4λ^4,5λ^4-dipyrrolo[1,2-c:2’,1’-f][1,3,2]diazaborinin-3-yl)propanamido)hexanamido)-1-oxohexan-2-yl)amino)-3-oxopropyl)-2-((S)-2-((S)-2-(3-(4-(2-benzylphenoxy)piperidin-1-yl)propanamido)-3-methylbutanamido)-3-hydroxypropanamido)succinamide] ({Propanoyl(3-Pip(4-O-2-BnPh))}-VSN[βAla]K([Ahx-BODIPY(FL)])-NH2) | 5250 nM | 5.28 ± 0.06
C[C@H](NC(=O)CCN(C)CC/C=C1\c2ccccc2COc2ccccc21)C(=O)N[C@@H](C)C(=O)N[C@@H](C)C(=O)NCCC(=O)N[C@@H](CCCn1cc(COc2ccc(/C=C/C3=[N+]4C(=Cc5ccc(-c6cccs6)n5[B-]4(F)F)C=C3)cc2)nn1)C(N)=O [Compound 28d] | 5 nM | 8.27 ± 0.05
